# Assays:
# Experiment in all cases: relative viability (nuclei count vs DMSO), 5 days (fraction); higher = more cells survive
# QS11 + Palbociclib = compound: C1CC2=C(C1)C=C(C=C2)OC3=NC(=C4C(=N3)N(C=N4)CC5=CC=C(C=C5)C6=CC=CC=C6)N[C@@H](CC7=CC=CC=C7)CO [QS11] + CC(=O)c1c(C)c2cnc(Nc3ccc(N4CCNCC4)cn3)nc2n(C2CCCC2)c1=O [Palbociclib] (partner 0.5 µM)
# Method in brief: (§1)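 Lung cancer cell lines, seeded in 1536-well plates, were treated the following day by pin tool with a single drug or with five library-drug doses (not always all listed) in √10 steps on top of a fixed anchor-drug dose. Cells were fixed and nuclei stained in one step after 5 days, and nuclei were counted. Relative viability is the nuclei count for treated wells divided by that for vehicle wells, reported as medians of duplicate plates.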
# QS11 + Phenformin = compound: C1CC2=C(C1)C=C(C=C2)OC3=NC(=C4C(=N3)N(C=N4)CC5=CC=C(C=C5)C6=CC=CC=C6)N[C@@H](CC7=CC=CC=C7)CO [QS11] + N=C(N)NC(=N)NCCc1ccccc1 [Phenformin] (partner 250 µM)
# Method in brief: as §1
# AZ628 + Crizotinib = compound: CC1=C(C=C(C=C1)NC(=O)C2=CC(=CC=C2)C(C)(C)C#N)NC3=CC4=C(C=C3)N=CN(C4=O)C [AZ628] + C[C@@H](Oc1cc(-c2cnn(C3CCNCC3)c2)cnc1N)c1c(Cl)ccc(F)c1Cl [Crizotinib] (partner 1 µM)
# Method in brief: as §1
# [1] = compound: C[As](C)SC[C@H](NC(=O)CC[C@H](N)C(=O)O)C(=O)NCC(=O)O [Darinaparsin] + CC(C)C[C@H](NC(=O)[C@H](Cc1ccccc1)NC(=O)c1cnccn1)B(O)O [Bortezomib] (partner 0.002 µM)
# Method in brief: as §1
Cell Line,relative viability (QS11 + Palbociclib; first compound 0.08 µM),relative viability (QS11 + Palbociclib; first compound 0.253 µM),relative viability (QS11 + Palbociclib; first compound 0.8 µM),relative viability (QS11 + Palbociclib; first compound 2.53 µM),relative viability (QS11 + Palbociclib; first compound 8 µM),relative viability (QS11 + Phenformin; first compound 0.08 µM),relative viability (QS11 + Phenformin; first compound 0.253 µM),relative viability (QS11 + Phenformin; first compound 0.8 µM),relative viability (QS11 + Phenformin; first compound 2.53 µM),relative viability (QS11 + Phenformin; first compound 8 µM),relative viability (AZ628 + Crizotinib; first compound 0.08 µM),relative viability (AZ628 + Crizotinib; first compound 0.253 µM),relative viability (AZ628 + Crizotinib; first compound 0.8 µM),relative viability (AZ628 + Crizotinib; first compound 2.53 µM),relative viability (AZ628 + Crizotinib; first compound 8 µM),relative viability ([1]; first compound 0.08 µM),relative viability ([1]; first compound 0.8 µM),relative viability ([1]; first compound 2.53 µM),relative viability ([1]; first compound 8 µM)
NCI-H2347,0.375,0.476,0.414,0.4,0.354,0.374,0.395,0.362,0.364,0.637,0.689,0.832,0.709,0.589,0.443,1.18,0.742,0.831,1.16
NCI-H2405,0.544,0.541,0.488,0.536,0.502,0.361,0.443,0.372,0.45,0.399,0.478,0.66,0.522,0.588,0.568,1.08,0.936,0.899,1.09
NCI-H3122,0.171,0.225,,0.188,0.18,0.376,0.399,,0.384,0.322,0.349,0.252,0.29,0.238,0.234,1.04,1.02,1.08,1.13
PC-3 [JPC-3],,0.586,0.396,0.595,0.575,0.446,0.476,0.461,0.489,0.431,0.941,1.04,1,1.06,0.922,0.98,0.829,0.73,0.815
PC-14,,0.608,0.455,0.44,0.434,0.384,0.49,0.574,0.683,0.737,0.909,0.839,1.04,0.976,0.726,0.925,0.77,0.753,1.11
RERF-LC-KJ,1.08,0.999,0.724,0.895,0.874,0.407,0.41,0.438,0.378,0.315,0.779,0.817,0.868,0.85,0.726,1.33,1.14,1.14,1.12
SK-LU-1,0.345,0.419,0.336,0.365,0.376,0.527,0.557,0.587,0.404,0.456,0.699,0.874,0.778,0.792,0.885,1.58,1.19,0.871,1.33
SW 1573,0.388,0.35,0.339,0.223,0.161,0.407,0.374,0.413,0.442,0.346,0.664,0.587,0.707,0.598,0.425,1.02,1.01,1.05,1.29
UMC-11,0.307,0.343,0.378,0.343,0.337,0.325,0.287,0.302,0.324,0.24,0.578,0.572,0.684,0.542,0.781,0.81,0.728,0.442,0.739

# Source: the supplement of paper PMC10307832
